Columns and labels:
MftR H68A = test: ITC binding of oleoyl-CoA to MftR variant; set-up: species or system Mycobacterium smegmatis mc^2155; settings: ND = not detected
Description: (§1) Next, we examined which amino acid residues contribute to the interaction between MftR and oleoyl-CoA. The crystal structure of Msmeg MftR is currently unavailable; however, an unpublished structure of Rhodococcus jostii RHA1 MftR has been deposited in the Protein Data Bank (PDB) (PDB ID: 2RAE, 54% identical, Fig. S3). Using this structure, we employed SwissDock to model oleoyl-CoA bound to MftR (Fig. 5) ([41], [42]). From the docked structure, we identified eight conserved residues on MftR that were expected to create the acyl-binding pocket or bind CoA through electrostatic interactions. Following single amino acid replacements of the residues, we measured the Kd values of the mutant proteins to oleoyl-CoA using ITC. For the putative acyl-binding pocket residues Phe65, Phe96, and Ile114, mutations to alanine led to no or modest change to the Kd for oleoyl-CoA (Table 1). […] Conversely, when His68 was mutated to alanine, binding of oleoyl-CoA by the protein was undetectable. To validate this observation, competitive EMSAs were carried out using the H68A mutant. […] Thus, it is highly likely that His68 is an important residue for oleoyl-CoA binding. To evaluate residues that were expected to interact with CoA, Gln15, Asp16, Ser67, and Asp66 were targeted. Of these, mutants of Asp16 and Ser67 had the greatest effect (Table 1). […] This latter observation was validated using competitive EMSAs (Fig. S4B). […] Taken together, it is likely that Ser67 and Asp16 participate in oleoyl-CoA binding, likely through electrostatic interactions.
(§2) Mutant strand synthesis reactions were performed according to the Agilent QuikChange site-directed mutagenesis protocol. The mftR_pET28a plasmid was used as a template for site-directed mutagenesis studies. Sequence-verified plasmids were transformed into E. coli BL21(DE3) pLysS cells for protein production and purified using the same protocol as wildtype MftR.
(§3) ITC was performed using TA Nano ITC. MftR was loaded in the sample cell at the concentration of 16 and 250 μM acyl-CoAs (C12–C18) loaded in the syringe. To minimize the effect of buffer mismatch, the stock concentration of acyl-CoAs was prepared using ITC buffer (50 mM Hepes, 50 mM NaCl, and pH 7.5), and the pH was adjusted to within 0.05 units. In addition, MftR was buffer exchanged into ITC buffer using a PD-10 column (GE Life Sciences). The volume of the titrant added at each injection into the sample cell was 2.22 μl. The time interval between the successive injections was 180 s. The temperature of the cell was kept at 25 °C. The data obtained were fit by independent one-site model using NanoAnalyze Data Analysis, version 3.8.0, that was provided with the instrument.

MftR F96A = target: T1, MftR F96A (Mycolicibacterium smegmatis, UniProt A0QSB5, F96A); test: ITC binding of oleoyl-CoA to MftR variant; set-up: species or system Mycobacterium smegmatis mc^2155
T1 sequence (A0QSB5 1-200 F96A): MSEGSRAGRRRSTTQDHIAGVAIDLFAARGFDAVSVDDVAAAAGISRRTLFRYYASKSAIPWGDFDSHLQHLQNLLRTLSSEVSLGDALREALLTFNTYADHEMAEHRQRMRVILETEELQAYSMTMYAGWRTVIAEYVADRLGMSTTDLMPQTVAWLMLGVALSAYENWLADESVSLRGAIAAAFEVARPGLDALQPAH
Description: as §1, §2, §3

Question: `CCCCCCCC/C=C\CCCCCCCC(=O)SCCNC(=O)CCNC(=O)[C@H](O)C(C)(C)COP(=O)(O)OP(=O)(O)OC[C@H]1O[C@@H](n2cnc3c(N)ncnc32)[C@H](O)[C@@H]1OP(=O)(O)O` [oleoyl-CoA] was tested. Which Kd (MftR H68A) did it give?
Answer: undetectable

Question: And the Kd (MftR F96A)?
Answer: 1400 ± 100 nM
